Test results as given in paper PMC12155096 (International Journal of Molecular Sciences, 2025).
Counter-ions that a name gives are not always drawn. Like-named read-outs stand apart in the source and are kept apart here.

How the values were obtained:
human CYP2C19 [1] = biological target: T1, human CYP2C19 (Homo sapiens, UniProt P33261); assay: biochemical; conditions: for AC50: CYP2C19 AC50 (half-maximal activity concentration)
human CYP2D6 [2] = biological target: T2, human CYP2D6 (Homo sapiens, UniProt P10635); conditions: for CYP2D6 Efficacy: 1 h
T2 sequence (P10635 whole entry): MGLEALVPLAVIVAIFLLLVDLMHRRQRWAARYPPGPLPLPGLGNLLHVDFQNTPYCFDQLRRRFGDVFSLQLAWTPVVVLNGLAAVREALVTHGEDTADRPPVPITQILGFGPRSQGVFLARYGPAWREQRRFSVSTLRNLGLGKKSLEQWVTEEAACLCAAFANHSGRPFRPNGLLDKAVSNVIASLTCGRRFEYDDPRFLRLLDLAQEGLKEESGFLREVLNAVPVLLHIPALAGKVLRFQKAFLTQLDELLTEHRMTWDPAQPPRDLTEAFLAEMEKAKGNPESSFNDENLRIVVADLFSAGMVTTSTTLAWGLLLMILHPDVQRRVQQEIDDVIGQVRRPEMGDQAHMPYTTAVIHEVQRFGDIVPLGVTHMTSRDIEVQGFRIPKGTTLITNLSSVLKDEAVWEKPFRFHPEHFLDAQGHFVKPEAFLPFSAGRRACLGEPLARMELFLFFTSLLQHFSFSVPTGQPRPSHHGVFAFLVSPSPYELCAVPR

human CYP2D6 [3] = biological target: T2, human CYP2D6; assay: biochemical; conditions: for AC50: CYP2D6 AC50 (half-maximal activity concentration)
human CYP1A2 [4] = biological target: T3, human CYP1A2 (Homo sapiens, UniProt P05177); assay: biochemical; conditions: for AC50: CYP1A2 AC50 (half-maximal activity concentration)
T3 sequence (P05177 1-516): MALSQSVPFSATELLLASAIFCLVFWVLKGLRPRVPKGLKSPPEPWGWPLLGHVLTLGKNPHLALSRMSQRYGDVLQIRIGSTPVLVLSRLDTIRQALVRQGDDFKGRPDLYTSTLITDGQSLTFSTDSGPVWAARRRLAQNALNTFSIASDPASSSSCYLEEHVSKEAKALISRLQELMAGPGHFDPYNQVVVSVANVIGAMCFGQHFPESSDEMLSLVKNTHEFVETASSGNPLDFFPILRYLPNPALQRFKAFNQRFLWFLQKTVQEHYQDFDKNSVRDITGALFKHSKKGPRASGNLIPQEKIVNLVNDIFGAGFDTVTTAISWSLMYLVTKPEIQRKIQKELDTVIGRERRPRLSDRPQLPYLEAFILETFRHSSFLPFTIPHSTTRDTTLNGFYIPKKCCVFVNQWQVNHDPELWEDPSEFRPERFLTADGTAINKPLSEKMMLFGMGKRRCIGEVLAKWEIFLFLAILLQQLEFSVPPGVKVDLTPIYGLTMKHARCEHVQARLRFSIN

[5] = biological target: Photinus pyralis (firefly) luciferase (Photinus pyralis, UniProt P08659); assay: biochemical; type: biochemical
Chain of Photinus pyralis (firefly) luciferase (P08659 whole entry): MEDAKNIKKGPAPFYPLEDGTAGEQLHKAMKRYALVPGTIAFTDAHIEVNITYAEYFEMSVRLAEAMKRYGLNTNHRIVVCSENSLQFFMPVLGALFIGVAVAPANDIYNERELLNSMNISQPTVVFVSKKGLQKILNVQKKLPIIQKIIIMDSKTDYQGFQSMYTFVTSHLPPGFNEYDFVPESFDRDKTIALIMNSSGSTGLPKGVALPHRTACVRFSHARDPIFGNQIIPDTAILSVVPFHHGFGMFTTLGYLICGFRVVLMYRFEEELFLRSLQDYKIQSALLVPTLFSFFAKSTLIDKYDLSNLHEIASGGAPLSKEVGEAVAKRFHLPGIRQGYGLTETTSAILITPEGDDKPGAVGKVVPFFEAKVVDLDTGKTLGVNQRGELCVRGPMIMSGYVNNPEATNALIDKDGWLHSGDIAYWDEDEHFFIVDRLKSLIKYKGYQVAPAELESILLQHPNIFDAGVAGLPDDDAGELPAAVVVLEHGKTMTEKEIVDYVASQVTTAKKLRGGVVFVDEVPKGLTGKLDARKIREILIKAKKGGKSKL

CYP3A4 [6] = biological target: T4, CYP3A4 (Homo sapiens, UniProt P08684); assay: biochemical; conditions: for AC50: CYP3A4 AC50 (half-maximal activity concentration)
T4 sequence (P08684 whole entry): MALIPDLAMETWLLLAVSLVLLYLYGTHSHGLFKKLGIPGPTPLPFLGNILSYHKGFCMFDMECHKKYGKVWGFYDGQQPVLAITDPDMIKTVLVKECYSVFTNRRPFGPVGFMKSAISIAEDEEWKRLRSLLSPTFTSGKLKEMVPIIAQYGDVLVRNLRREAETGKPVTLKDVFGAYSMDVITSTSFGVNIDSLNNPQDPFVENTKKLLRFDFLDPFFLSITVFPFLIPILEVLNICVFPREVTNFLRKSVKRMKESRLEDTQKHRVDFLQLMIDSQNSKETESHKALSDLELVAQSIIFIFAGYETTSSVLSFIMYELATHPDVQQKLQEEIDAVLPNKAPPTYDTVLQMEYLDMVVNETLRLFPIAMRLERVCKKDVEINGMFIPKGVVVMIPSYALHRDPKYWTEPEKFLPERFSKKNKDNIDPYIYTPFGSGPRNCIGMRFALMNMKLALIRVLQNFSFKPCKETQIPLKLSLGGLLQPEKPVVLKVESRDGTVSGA

human CYP2C9 [7] = biological target: T5, human CYP2C9 (Homo sapiens, UniProt P11712); assay: biochemical; conditions: for AC50: CYP2C9 AC50 (half-maximal activity concentration)
T5 sequence (P11712 whole entry): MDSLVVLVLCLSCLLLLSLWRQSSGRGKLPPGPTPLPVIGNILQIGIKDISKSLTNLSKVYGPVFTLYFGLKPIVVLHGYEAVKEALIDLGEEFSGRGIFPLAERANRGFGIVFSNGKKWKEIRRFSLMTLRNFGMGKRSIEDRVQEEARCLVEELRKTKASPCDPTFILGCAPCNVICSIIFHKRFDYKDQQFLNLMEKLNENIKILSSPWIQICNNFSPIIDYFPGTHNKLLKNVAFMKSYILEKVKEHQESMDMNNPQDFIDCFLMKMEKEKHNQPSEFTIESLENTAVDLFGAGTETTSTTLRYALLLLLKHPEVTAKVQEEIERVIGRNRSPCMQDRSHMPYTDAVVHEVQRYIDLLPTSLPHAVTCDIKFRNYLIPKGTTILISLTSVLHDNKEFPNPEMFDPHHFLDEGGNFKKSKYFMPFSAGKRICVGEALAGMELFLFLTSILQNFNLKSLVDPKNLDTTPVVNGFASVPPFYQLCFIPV

CYP3A4 [8] = biological target: T4, CYP3A4
human CYP2C19 [9] = biological target: T1, human CYP2C19
human CYP2C9 [10] = biological target: T5, human CYP2C9
human CYP1A2 [11] = biological target: T3, human CYP1A2
[12] = CYP2C19 IC50 (half-maximal inhibitory concentration)
[13] = CYP1A2 IC50 (half-maximal inhibitory concentration)
[14] = CYP2D6 IC50 (half-maximal inhibitory concentration)
[15] = CYP3A4 IC50 (half-maximal inhibitory concentration)
[16] = CYP2C9 IC50 (half-maximal inhibitory concentration)

T1 sequence (P33261 whole entry): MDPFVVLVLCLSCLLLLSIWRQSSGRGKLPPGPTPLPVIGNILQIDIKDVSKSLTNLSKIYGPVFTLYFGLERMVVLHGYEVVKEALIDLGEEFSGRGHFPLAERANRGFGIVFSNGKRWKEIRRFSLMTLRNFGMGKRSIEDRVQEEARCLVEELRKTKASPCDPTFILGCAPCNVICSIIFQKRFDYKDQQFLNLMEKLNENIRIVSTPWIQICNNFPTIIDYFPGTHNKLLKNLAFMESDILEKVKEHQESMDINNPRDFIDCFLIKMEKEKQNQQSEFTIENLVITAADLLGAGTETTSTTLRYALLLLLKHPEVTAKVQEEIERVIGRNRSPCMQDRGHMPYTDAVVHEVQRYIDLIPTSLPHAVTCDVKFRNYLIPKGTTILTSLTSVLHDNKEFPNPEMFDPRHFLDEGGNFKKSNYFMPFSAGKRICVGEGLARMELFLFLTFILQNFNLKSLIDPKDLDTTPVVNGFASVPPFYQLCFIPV

SMILES | IC50 (human CYP2C19 [1]; [12]) | IC50 (human CYP2D6 [3]) | IC50 (human CYP1A2 [4]; [13]) | Luciferase IC50 (half-maximal inhibitory concentration) [5] | AC50 (CYP3A4 [6]) | IC50 (human CYP2C9 [7]) | IC50 (human CYP2D6 [3]; [14]) | IC50 (human CYP2C9 [7]; [16]) | AC50 (human CYP2D6 [3]) | further results
CCOC(=O)C(O)(c1ccc(Cl)cc1)c1ccc(Cl)cc1 [Chlorobenzilate] | 390 nM | 46.2 µM | 44.5 µM | Inactive | 9230 nM | 7.68 µM |  |  |  | AC50 (human CYP2C19 [1]): 390 nM; CYP2D6 AC50 (half-maximal activity concentration) (human CYP2D6 [2]): Inconclusive inhibitor; AC50 (human CYP1A2 [4]): 44.5 µM; AC50 (human CYP2C9 [7]): 7.68 µM; CYP3A4 IC50 (half-maximal inhibitory concentration) (CYP3A4 [8]): 9.23 ± 2.97 (118 ± 20) µM
CC1(C)CCC(Cc2ccc(Cl)cc2)C1(O)Cn1cncn1 (stereo not drawn) [Metconazole] | 170 nM |  |  | Inactive |  |  | 41.9 µM | 0.23 µM |  | CYP2C19 Efficacy (in parenthesis) (human CYP2C19 [9]; human): 0.17 ± 0.05 (-148 ± 4) %; CYP2D6 Efficacy (in parenthesis) (human CYP2D6 [2]; human): 41.91 ± 7.54 (-75 ± 4) %; IC50 (CYP3A4 [6]; [15]): 60 nM; CYP2C9 Efficacy (in parenthesis) (human CYP2C9 [10]; human): 0.23 ± 0.11 (-96 ± 19) %; CYP3A4 Efficacy (in parenthesis) (CYP3A4 [8]): 0.06 ± 0.04 (-85 ± 6) %
CC(CCc1ccccc1)NCC(O)c1ccc(O)c(C(N)=O)c1 (stereo not drawn) [Labetalol hydrochloride] |  |  |  | Inactive | 34800 nM |  | 0.62 µM |  | 0.62 µM | CYP2C9 IC50 (half-maximal inhibitory concentration) (human CYP2C9 [10]): Inactive; CYP1A2 IC50 (half-maximal inhibitory concentration) (human CYP1A2 [11]): Inactive; CYP3A4 IC50 (half-maximal inhibitory concentration) (CYP3A4 [8]): 34.77 ± 1.39 (96 ± 9) µM
O=c1[nH]c2ccccc2n1CCCN1CCN(C(c2ccccc2)c2ccccc2)CC1 [Oxatomide] |  |  |  |  | 1390 nM |  |  |  | 0.62 µM | CYP2C19 AC50 (half-maximal activity concentration) (human CYP2C19 [9]): Inconclusive inhibitor; IC50 (human CYP2C19 [1]; CYP2C19 IC50): 33200 nM; IC50 (human CYP2D6 [3]; CYP2D6 IC50): 0.62 µM; Luciferase IC50 [5]: Inactive; CYP1A2 IC50 (human CYP1A2 [11]): Inactive; AC50 (human CYP2C9 [7]): 25.3 µM; IC50 (human CYP2C9 [7]; CYP2C9 IC50): 25.3 µM; CYP3A4 IC50 (CYP3A4 [8]): 1.39 ± 0.16 (164 ± 14) µM
C=CCOc1cc(Cl)ccc1C(=O)NCCN(CC)CC [Alloclamide] |  | 0.28 µM |  | Inactive |  |  |  |  |  | IC50 (human CYP2C19 [1]): 26800 nM; IC50 (human CYP1A2 [4]): 3.34 µM; IC50 (CYP3A4 [6]): 16800 nM; CYP2C9 IC50 (half-maximal inhibitory concentration) (human CYP2C9 [10]): Inactive
CN(C)c1ccc(C(=N)c2ccc(N(C)C)cc2)cc1 [Auramine hydrochloride] | 21000 nM |  | 25.3 µM | Inactive |  |  | 0.08 µM |  |  | IC50 (CYP3A4 [6]; [15]): 39300 nM; CYP2C9 IC50 (half-maximal inhibitory concentration) (human CYP2C9 [10]): Inactive
CN1CCc2cc(Cl)c(O)cc2[C@H]2c3ccccc3CC[C@@H]21 [Ecopipam] |  |  |  |  | 1890 nM |  |  |  | 0.01 µM | CYP2C19 IC50 (human CYP2C19 [9]): Inactive; IC50 (human CYP2D6 [3]; CYP2D6 IC50): 0.01 µM; Luciferase IC50 [5]: Inactive; CYP2C9 IC50 (human CYP2C9 [10]): Inactive; CYP1A2 IC50 (human CYP1A2 [11]): Inactive; CYP3A4 IC50 (CYP3A4 [8]): 1.89 ± 0.26 (95 ± 11) µM
CCCCC(CC)CN1C(=O)C2C3C=CC(C3)C2C1=O (stereo not drawn) [MGK-264] |  | 31.4 µM |  |  |  | 10.1 µM |  |  |  | IC50 (human CYP2C19 [1]): 4900 nM; CYP2D6 Efficacy (human CYP2D6 [2]; human): 31.36 ± 8.74 (-86 ± 27) %; IC50 (human CYP1A2 [4]): 18.6 µM; Luciferase IC50 [5]: Inactive; IC50 (CYP3A4 [6]): 860 nM
CCOP(=O)(OCC)OC(=CCl)c1ccc(Cl)cc1Cl [Chlorfenvinphos] | 830 nM | 37 µM | 6.58 µM | Inactive | 1180 nM | 31.9 µM |  |  | 37 µM | AC50 (human CYP2C19 [1]): 830 nM; IC50 (human CYP2C19 [1]; IC50 CYP2C19 assay): 770 nM; AC50 (human CYP1A2 [4]): 6.58 µM; AC50 (human CYP2C9 [7]): 31.9 µM; CYP3A4 IC50 (half-maximal inhibitory concentration) (CYP3A4 [8]): 1.18 ± 0.21 (70 ± 1) µM
COc1ccc(S(=O)(=O)N2C(=O)[C@@](c3ccccc3OC)(N3C[C@H](O)C[C@H]3C(=O)N(C)C)c3cc(Cl)ccc32)c(OC)c1 [Nelivaptan] |  | 55.1 ± 29.4 µM |  | Inactive |  | 44.5 ± 24.6 µM |  |  |  | IC50 (human CYP2C19 [1]): 27600 ± 19500 nM; CYP2D6 Efficacy (human CYP2D6 [2]; human): 55.12 ± 29.45 (-53 ± 5) %; IC50 (human CYP1A2 [4]): 53.3 ± 25 µM; IC50 (CYP3A4 [6]): 70 ± 20 nM
CC(O)(c1ccc(Cl)cc1)c1ccc(Cl)cc1 [Chlorfenethol] | 120 nM |  | 30.6 µM | Inactive | 11800 nM |  | 55.5 µM | 7.68 µM | 55.5 µM | AC50 (human CYP2C19 [1]): 120 nM; AC50 (human CYP1A2 [4]): 30.6 µM; AC50 (human CYP2C9 [7]): 7.68 µM; CYP3A4 IC50 (half-maximal inhibitory concentration) (CYP3A4 [8]): 11.76 ± 1.5 (55 ± 6) µM
Cc1ccc2c(c1N)C(=O)c1ccccc1C2=O [1-Amino-2-methylanthraquinone] | 5660 nM |  | 0.58 µM |  | 320 nM |  | 5.59 µM | 3.36 µM | 5.59 µM | AC50 (human CYP2C19 [1]): 5660 nM; AC50 (human CYP1A2 [4]): 0.58 µM; IC50 [5]: 5.87 µM; AC50 (human CYP2C9 [7]): 3.36 µM; CYP3A4 IC50 (half-maximal inhibitory concentration) (CYP3A4 [8]): 0.32 ± 0.14 (91 ± 19) µM
CCOP(=S)(OCC)Oc1cnc2ccccc2n1 [Quinalphos] |  | 38.5 µM |  |  |  | 0.91 µM |  |  |  | IC50 (human CYP2C19 [1]; CYP2C19 IC50): 470 nM; IC50 (human CYP1A2 [4]; CYP1A2 IC50): 2.25 µM; Luciferase IC50 [5]: Inactive; IC50 (CYP3A4 [6]; CYP3A4 IC50): 4570 nM
CCOc1cc(C(C)(C)C)ccc1C1COC(c2c(F)cccc2F)=N1 (stereo not drawn) [Etoxazole] | 3430 nM |  | 19.6 µM | Inactive |  |  | 10.5 µM | 9.94 µM |  | IC50 (CYP3A4 [6]; [15]): 110 nM
c1ccc(CCCc2ccncc2)cc1 [4-(3-Phenylpropyl)pyridine] |  | 3.93 µM |  |  |  | 1.86 µM |  |  |  | IC50 (human CYP2C19 [1]): 700 nM; IC50 (human CYP1A2 [4]): 1.14 µM; IC50 [5]: 55.3 µM; IC50 (CYP3A4 [6]): 430 nM
CCOCn1c(-c2ccc(Cl)cc2)c(C#N)c(Br)c1C(F)(F)F [Chlorfenapyr] | 4660 nM |  | 0.6 µM | Inactive |  |  | 33 µM | 9.71 µM |  | IC50 (CYP3A4 [6]; [15]): 37000 nM
CC(C)(C)C(=O)C(Oc1ccc(Cl)cc1)n1cncn1 (stereo not drawn) [Triadimefon] | 1920 nM |  | 37 µM | Inactive |  |  | 51.6 µM | 11.3 µM |  | IC50 (CYP3A4 [6]; [15]): 450 nM
